Patent US10933135B2, “Methods for the treatment of cardiac hypertrophy” (UNIVERSITY OF CINCINNATI, priority 2016, dated 2021)
Several values for one entry are separate records, joined by “and”; a condition that tells them apart may be missing. Equal values may be shown once. Entries after “also recorded” stand apart in the source; their conditions may differ.

What was measured:
HuR = HuR nucleo-cytoplasmic translocation by immunostaining in NRVMs; type: cell-based, rat; conditions: for HuR cytoplasmic translocation, fluorescent intensity ratio: agonist alone (PE 10 μM or AngII 100 nM), within 15 minutes (printed 15 hr)
Description: All antibodies were made up in 0.6% BSA in PBS. For wheat germ agglutinin (WGA) staining, a Texas Red-X conjugate was used per manufacturer's instructions (ThermoFisher). […]

HuR-RNA binding = HuR-RNA binding (Homo sapiens, UniProt Q15717); experiment: Plasmonic nanoparticle LSPR assay of HuR-RNA binding; conditions: gold nanoparticle arrays, target RNA SEQ ID NO 7, recombinant HuR protein
Protocol: As shown schematically in FIG. 9A-B, a pattern for either microfluidic channels or a spot plate is first made on the substrate using photolithography. Next, the hole mask procedure is carried out on top of the patterned photoresist to make the desired nanoparticle array. Briefly, this procedure involves spin coating a layer of poly(methylmethacrylate) (PMMA) followed by a layer of poly(diallyldimethylammonium chloride) (PDDA). Next, polystyrene spheres of a desired size are drop-coated onto the top of the polymer layers and a layer of 5 nm of gold is deposited over the whole assembly. After removal of the polystyrene spheres by tape-stripping, the masks are subjected to oxygen plasma etching to generate holes the same size as the polystyrene spheres. Metals are then deposited into these holes and in the last step, both the PMMA/PDDA polymer mask and the photoresist are removed using acetone, to create nanoparticle arrays in a desired pattern on the substrate. […] The PDMS layer was used to create the channels for the microfluidic devices and to prevent solution migration from spot to spot in the spot plates.
Next a target RNA strand containing a DNA hybridizing region, which binds via base pair matching with the ssDNA on the nanoparticle, and a hairpin loop containing a HuR target binding site. […] Last, the HuR protein is added and binds to its target site within the RNA hairpin loop. […]

NFAT = experiment: NFAT-luciferase reporter assay in NRVMs; type: cell-based, rat; conditions: for effect on basal NFAT activity: inhibitor at its IC50, without PE; for NFAT reporter activity, fold vs. vehicle control: 24 hours
Protocol: NRVMs were transfected with 75 ng per well (in a 96-well plate) of NFAT-luciferase reporter plasmid acquired from AddGene (51941) (B. J. Wilkins et al., Calcineurin/NFAT coupling participates in pathological, but not physiological, cardiac hypertrophy, Circ. Res. 94 (2004) 110-118. doi:10.1161/01.RES.0000109415.17511.18, the entire disclosure of which is incorporated herein by this citation). 48 hours after transfection, cells were treated with 10 μM PE for 24 hours to induce NFAT reporter activity. To quantify luciferase reporter expression, cells were rinsed with sterile PBS and then lysed with 50 μL Cell Lysis Buffer (Promega) for 5 min at room temperature, followed by addition of 100 μL luciferase assay reagent (Promega); luminescence was read immediately on the BioTek Cytation 3 image reader. HuR inhibitors were previously identified by Wu et. al. (X. Wu et al., Identification and Validation of Novel Small Molecule Disruptors of HuR-mRNA Interaction, ACS Chem. Biol. (2015) 150317154550000-9. doi:10.1021/cb500851u. the entire disclosure of which is incorporated herein by this citation), and used here as described.

PKC = PKC substrate phosphorylation in NRVMs; type: cell-based, rat; conditions: data not shown
ANF = ANF (hypertrophic marker gene) expression by qRT-PCR in NRVMs; type: cell-based, rat; conditions: vehicle+PE, 24 hr
Protocol: (§1) RNA was isolated using a Macherey-Nagel NucleoSpin RNA kit and cDNA was synthesized using a BioScript All-in-One cDNA Synthesis SuperMix (Biotool). Samples were run on Stratagene Mx3005P (Agilent Technologies) using SYBR Green qPCR Master Mix (Biotool) to assess levels of GAPDH, ANF (atrial natriuretic factor), and RCAN1 (Regulator of Calcineurin 1). Results were analyzed using the ΔΔCt method (K. J. Livak, T. D. Schmittgen, Analysis of relative gene expression data using real-time quantitative PCR and the 2(-Delta Delta C(T)) Method, Methods. 25 (2001) 402-408. doi:10.1006/meth.2001.1262, the entire disclosure of which is incorporated herein by this citation). Primers are as listed: […]

RCAN1 = experiment: Expression of the NFAT target gene RCAN1 by qRT-PCR in NRVMs; type: cell-based, rat; conditions: PE treated
Protocol: as §1

[1] = tested on: neonatal rat ventricular myocytes (NRVMs); experiment: Hypertrophic cell growth of NRVMs, cell area by WGA staining; type: cell-based; conditions: 10 μM PE for 24 hr, vs vehicle treated control cells
Description: Neonatal rat ventricular myocytes (NRVMs) were isolated using collagenase digestion and adhesion differential from fibroblasts as described ([…]. Moore-Morris, S. Lange, Isolation and culture of neonatal mouse cardiomyocytes, J Vis Exp. (2013) e50154-e50154. doi:10.3791/50154, the entire disclosure of which is incorporated herein by this citation). Briefly, Sprague Dawley neonatal rats (1-2 days old) (Taconic) were decapitated and the hearts were isolated. Following removal of the atria, the ventricles were cut into small pieces and digested first in 0.05% trypsin/EDTA (Corning) overnight, then in collagenase II (Gibco) for 30 minutes. Cells were then spun at 100×g followed by a 40 minute pre-plating process on non-treated plates to allow the fibroblasts to adhere. The non-adherent NRVMs were then transferred to cell culture-treated dishes in MEM alpha media (Gibco) with 10% FBS. […] All slides were imaged with the BioTek Cytation 3 image reader and quantitative assessment of HuR translocation was measured as the ratio of cytoplasmic to nuclear fluorescent intensity (adjusted for mean background fluorescence and integrated area) using ImageJ.

[2] = tested on: pressure overload (aortic constriction) mouse model of heart failure; experiment: Aortic constriction (TAC) pressure overload mouse model of cardiac hypertrophy and heart failure; type: in vivo; conditions: TAC mice
Protocol: FIG. 7A-C. KH-3 reduces ventricular dilation and improves ejection fraction in a pressure overload (aortic constriction) mouse model of heart failure. Mice (N=10) were subjected to aortic constriction (TAC) to induce cardiac hypertrophy and heart failure. After week 4, they were randomized to receive either KH-3 (50 mg/kg 3×/week) or Vehicle (5 mice to each group). KH-3 is a small molecule inhibitor of HuR-mRNA interaction that is available from.
FIG. 8A-C. KH-3 reduces ventricular dilation and improves ejection fraction in a pressure overload (aortic constriction) mouse model of heart failure.

[3] = inhibitor at its IC50 simultaneously with PE
[4] = 50 mg/kg 3×/week from week 4, vs Vehicle

HuR-RNA binding, sequence (Q15717 whole entry): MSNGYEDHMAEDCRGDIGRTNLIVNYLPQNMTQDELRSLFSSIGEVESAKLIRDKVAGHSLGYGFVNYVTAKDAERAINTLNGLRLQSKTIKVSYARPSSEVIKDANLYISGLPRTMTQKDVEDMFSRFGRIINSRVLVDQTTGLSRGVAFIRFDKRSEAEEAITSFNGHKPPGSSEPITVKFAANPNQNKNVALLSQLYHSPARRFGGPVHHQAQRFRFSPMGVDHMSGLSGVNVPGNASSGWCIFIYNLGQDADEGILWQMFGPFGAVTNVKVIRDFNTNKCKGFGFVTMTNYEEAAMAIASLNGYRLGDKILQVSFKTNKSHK

`C[S+]([O-])c1ccc(-c2nc(-c3ccncc3)c(-c3ccc(F)cc3)[nH]2)cc1` (centres unmarked) [SB203580] was tested, and the “HuR translocation, fluorescent intensity ratio” value (HuR; p38 inhibitor (10 μM) + AngII) was 0.76±0.07 and the “HuR translocation, fluorescent intensity ratio” value (HuR; p38 inhibitor (10 μM) + PE, PE alone 1.05±0.06) was 0.68±0.08.
In the case of `CCN(CC)C(=O)CC(c1cc(OC)c(OC)c(OC)c1)c1c(OC)cc(OC)c2c(-c3ccccc3)cc(=O)oc12` (centres unmarked) [CMLD-1], the “leftward LSPR shift (disruption of HuR-RNA binding)” value (HuR-RNA binding) is reported as 10 nm, the “effect on basal NFAT activity” value (NFAT) is reported as “no significant effect” and the “NFAT reporter activity, fold vs. vehicle control” value (NFAT; [3]) is reported as 1.19±0.30 fold.
For `COc1ccc2c(c[n+](C)c3c4cc5c(cc4ccc23)OCO5)c1OC` [chelerythrine], the PKC substrate phosphorylation (PKC) was “a reduction of PKC substrate phosphorylation” and the “effect on PE/AngII-mediated HuR translocation” value (HuR; PKC inhibitor 10 μM) was “had no effect on HuR translocation; also recorded: shows a trend to enhance HuR translocation”.
For `CCCCCCCCCCCCCC(=O)O[C@@H]1[C@@H](C)[C@@]2(O)[C@@H](C=C(CO)C[C@]3(O)C(=O)C(C)=C[C@@H]23)[C@@H]2C(C)(C)[C@]12OC(C)=O` [PMA], the “HuR translocation after direct PKC activation” value (HuR; 2 μM) was “lack of HuR translocation”.
`COc1ccc(C(CC(=O)N2CCCC2)c2c(OC)cc(OC)c3c(-c4ccccc4)cc(=O)oc23)cc1` (centres unmarked) [CMLD-2] was tested, and the “effect on basal NFAT activity” value (NFAT) was “no significant effect” and the “NFAT reporter activity, fold vs. vehicle control” value (NFAT; [3]) was 1.30±0.14 fold.
For `CNC[C@H](O)c1cccc(O)c1` [PE, phenylephrine], the ANF expression fold-induction (ANF) was 5.4±1.4 fold-induction, the RCAN1 expression fold-induction (RCAN1) was 4.43±0.77 fold-induction and the “NFAT reporter activity, fold vs. vehicle control” value (NFAT; PE alone 10 μM) was 5.02±0.98 fold. For the same compound, the “HuR translocation, ratio of cytoplasmic to total cell fluorescent intensity” value (HuR; 24 hr PE, vehicle control 0.71±0.04) was 1.82±0.08, the “HuR cytoplasmic translocation, fluorescent intensity ratio” value (HuR; vehicle control 0.71±0.04) was 1.05±0.06 and the “fold increase in cell area/size” value [1] was 1.29±0.08 fold and 1.39±0.07 fold.
`CC(C)(C)c1ccc(S(=O)(=O)Nc2ccc3sc(/C=C/C(=O)NO)cc3c2)cc1` [KH-3] was tested, and the “cardiac hypertrophy as heart weight to body weight” value [2] was “strong trend toward a reduction in cardiac hypertrophy”, the “cardiac hypertrophy as heart weight to tibia length ratio” value [2] was “strong trend toward a reduction in cardiac hypertrophy” and the “left ventricle (LV) diameter” value [2, 4] was “blunts further increases”. The “left ventricle end diastolic volume (LV-EDV)” value [2, 4] was “preventing further increases”, the “left ventricle end systolic volume (LV-ESV)” value [2, 4] was “preventing further increases” and the “cardiac function as measured by ejection fraction” value ([2]; pressure overload-induced hypertrophy) was “strong trend toward improving cardiac function”.
For “angiotensin II [AngII, angiotensin receptor AT1 agonist]”, the “HuR cytoplasmic translocation, fluorescent intensity ratio” value (HuR; vehicle control 0.71±0.04) was 1.06±0.04.
